Assay results: a melting point compilation (Tetko et al.; mined from patent text by program, amines drawn as free bases though some values may be those of a salt)

Compared with `O=C(NCCC12CC3CC(CC(C3)C1)C2)c1cc(-c2cccnc2C(=O)O)ccc1Cl`, `COC(=O)Cc1cc2c(s1)NC(=O)C(C)N=C2c1ccccc1Cl` (stereo not drawn) is higher in melting point: 108 to 111 °C for the first, 185 to 190 °C for the second.

Going from `Nc1ccc(Oc2ccc(C3(c4ccc(Oc5ccc(N)c(O)c5)cc4)C4CC5CC(C4)CC3C5)cc2)cc1O` to `CN1CCC(C(=O)NO)(S(=O)(=O)c2ccc(Oc3ccc(Cl)cc3)cc2)CC1`, the melting point falls from over 160 °C to 52 °C.

First: CC(C)(C)OC(=O)/C=C/c1ccc(C(=C2CCCCCCC2)c2ccc(O)cc2)cc1
Second: CN(C)C(=S)Oc1ccc(C(=O)c2ccc(C#N)cc2)cc1
The melting point of the first is higher: 171 to 172 °C for the first, 162 °C for the second.

First: Nc1cc(=O)nc(Nc2ccc(Cl)cc2)n1-c1ccccc1
Second: BrCc1nc(-c2ccccc2)cc2ccccc12
The melting point of the first is higher: 233 to 237 °C for the first, 84 °C for the second.

First: Cc1ccc(Br)c(S(=O)(=O)C(F)(F)F)c1
Second: CC(=O)c1ccc(C(=O)NCC(=O)NCC(F)(F)F)c2ccccc12
The melting point of the first is lower: 69 °C for the first, 169 °C for the second.

First: CCOC(=O)C(=O)NNc1ccc(N)cc1
Second: CSCC[C@H](NC(=O)OC(C)(C)C)C(=O)Oc1ccc(NC(C)=O)cc1
The melting point of the first is lower: 97 to 99 °C for the first, 225 to 228 °C for the second.

First: CN(C)C(=O)C1=NO[C@@H](c2ccccc2)C1
Second: CC(N)CNC(=O)Nc1ccccc1 (stereo not drawn)
The melting point of the first is lower: 59 to 61 °C for the first, 118 to 120 °C for the second.

Compared with `N#Cc1ccc(OCc2ccsc2)cc1OC(C(=O)O)c1ccccc1Cl` (racemic), `COC(=O)c1cc(-c2ccc(OCc3ccccc3)cc2)c(=O)n2ccc3ccsc3c12` is higher in melting point: 68 to 70 °C for the first, 169 to 171 °C for the second.

Compared with `O=C1C(Cc2ccccc2)N(c2ccc(Oc3ccccc3)cc2)C(=S)N1c1ccccc1` (stereo not drawn), `O=C1C2CC=C(SC3=CCC4C(=O)N(c5ccccc5)C(=O)C4C3)CC2C(=O)N1c1ccccc1` (stereo not drawn) is higher in melting point: 130 °C for the first, 212 to 217 °C for the second.

First: CS(=O)(=O)Nc1cccc(Nc2nc(OC3CCOC3)c3nc[nH]c3n2)c1 (stereo not drawn)
Second: CC(C)c1cc(-c2ccc(F)c3ccccc23)nc(NS(C)(=O)=O)n1
The melting point of the first is lower: 255 to 257 °C for the first, 276 to 277 °C for the second.

First: CCCOCC(=O)c1ccc([N+](=O)[O-])cc1
Second: O=C(COc1ccc([N+](=O)[O-])cc1)NCc1ccccc1
The melting point of the first is lower: 49 to 50 °C for the first, 125 to 126 °C for the second.

First: N#Cc1nn(-c2c(Cl)cc(-c3c(F)c(F)nc(F)c3F)cc2Cl)c(N)c1SC(F)(F)F
Second: COc1c(Cl)ccc(-c2nc(Cl)c3c(ncn3C)n2)c1F
The melting point of the first is lower: 100 to 104 °C for the first, 184 to 186 °C for the second.

First: O=C1O[C@H]2C[C@@H]1CC[C@@H]2I
Second: O=C1C[C@H](O)[C@H](CC2CCCCC2)N1
The melting point of the first is lower: 130 to 131 °C for the first, 141 to 143 °C for the second.

Compared with `COc1cc(C)c(S(C)=O)cc1O` (stereo not drawn), `Cc1ccc([N+](=O)[O-])c(O)c1CCC(C)Br` (stereo not drawn) is lower in melting point: 148 to 150 °C for the first, 67 to 69 °C for the second.

Compared with `CCOC(=O)CN(C)C(=O)c1ccsc1C(=O)c1ccc(F)cc1`, `COc1ccc2c(c1)c(CC(=O)O)c(C)n2C(=O)c1ccccc1` is higher in melting point: 127 to 129 °C for the first, 158 to 160 °C for the second.

Compared with `O=C1Nc2ccccc2N2CCN(Cc3ccncc3)CC12` (stereo not drawn), `CC1(C)CCN(Cc2ccc(COc3cccc4c3CN(C3CCC(=O)NC3=O)C4=O)cc2)CC1` (stereo not drawn) is lower in melting point: 253 to 255 °C for the first, 168 to 170 °C for the second.

First: CC12CC(N3CCC(O)CC3)C(O)CC1CCC1C2CCC2(C)C(O)C(N3CCC4(CC3)OCCO4)CC12 (stereo not drawn)
Second: CCC1CC2C3CCC4=CC(=O)CCC4(CSC)C3CCC2(C)C1=O (stereo not drawn)
The melting point of the first is higher: 199 to 201 °C for the first, 83 °C for the second.

First: CCc1c(NC(=O)c2cc3c(s2)CCCC3)cccc1-c1cc(N)c(=O)n(C)c1
Second: CCOC(=O)C1(c2cccc(OCc3ccc4c(ccc(=O)n4C)c3)c2)CCOCC1
The melting point of the first is higher: 210 to 211 °C for the first, 109 to 110 °C for the second.

Compared with `COC(=O)c1ccc(Cn2ncc3ccccc32)cc1`, `O=C(COCc1ccc(Cl)cc1Cl)c1ccccc1` is lower in melting point: 89 to 90 °C for the first, 83 to 85 °C for the second.

Compared with `Cc1c(C(=O)OC(C)C)ncc2c1c1c(OCc3ccccc3)cccc1n2CC(=O)N(C)CCc1ccccc1`, `CCOC(=O)Nc1cc(COC(=O)Nc2ccc(N(CCCl)CCCl)cc2)cc(Nc2c3ccccc3nc3ccccc23)c1` is higher in melting point: 69 to 74 °C for the first, 178 to 182 °C for the second.

First: O=C(Nc1ccc(C(F)(F)F)cc1)Nc1ccc2c(c1)OC(F)(F)O2
Second: O=C(Nc1ccc(Cl)cc1)Nc1ccc2c(c1)OC(F)(F)O2
The melting point of the first is lower: 195 to 200 °C for the first, 231 to 233 °C for the second.

First: CC1(C)Cc2c(N)c(Cl)cc(C(=O)NC3CCN(CCNc4nc(O)c5cc(Cl)ccc5n4)CC3)c2O1
Second: CN1CCC(c2c[nH]c3ccc(C(=O)Cc4ccccc4)cc23)CC1
The melting point of the first is higher: 207 °C for the first, 69 °C for the second.

Compared with `Cc1cccc(C(=O)c2nc(-c3ccccn3)no2)c1`, `Cc1cccc2nc3n(c12)CC(c1ccccn1)S3=O` (stereo not drawn) is higher in melting point: 127 to 128 °C for the first, 148 °C for the second.

Compared with `CC(C)(C)c1cc(NC(=O)NCc2ccc([N+](=O)[O-])cc2)cc(C(C)(C)C)c1O`, `COC(=O)[C@H](Cc1ccc([N+](=O)[O-])cc1)NC(=S)c1c(C)cccc1Cl` is lower in melting point: 240 to 241 °C for the first, 150 to 153 °C for the second.

Compared with `CCCCOc1c(CNC(=O)OC(C)(C)C)n(CC(C)(C)C)c(=O)c2ccc(CO)cc12`, `CCCCOc1c(CN2C(=O)c3ccccc3C2=O)n(CCC(=O)O)c(=O)c2cc(Cl)c(Cl)cc12` is higher in melting point: 92 to 93 °C for the first, 196 to 197 °C for the second.

Compared with `COC(=O)Cc1nc(-c2ccc(Cl)cc2)oc1-c1ccsc1`, `O=c1ncc(Cl)cn1CSc1ccc(Cl)cc1` is higher in melting point: 127 to 128 °C for the first, 191 °C for the second.

Compared with `O=C(Nc1cc(Cl)cc(Cl)c1)c1cc(Br)ccc1O`, `CC(=O)Nc1cnc2c(NC(=O)c3c(Cl)cccc3Cl)cccc2c1` is higher in melting point: 243 to 244 °C for the first, 244 to 245 °C for the second.

First: Cc1sc(-c2ccccc2)nc1COc1cc(COc2ncccc2CC(=O)O)on1
Second: Cc1cc(NC(=O)CCC(=O)O)ccc1-n1c(C)nc2ccccc2c1=O
The melting point of the first is lower: 109 to 110 °C for the first, 228 to 230 °C for the second.

First: OC12CC3CC(C1)CC(NC(c1ccccc1)(c1ccccc1)c1ccccc1)(C3)C2
Second: O=C(O)CCc1cc2cc(C(=O)c3ccccc3)ccc2n1S(=O)(=O)c1ccccc1
The melting point of the first is higher: 184 to 186 °C for the first, 138 °C for the second.

First: N#Cc1ccc(C(=O)O)c(Cl)c1
Second: CC(=O)n1nc(C)c(Oc2cc(Cl)cc(C#N)c2)c1C
The melting point of the first is higher: 154 to 158 °C for the first, under 60 °C for the second.

First: Nc1c(Nc2cccc(-c3ccncc3)n2)c(=O)c1=O
Second: CC(=O)c1c(-c2ccc(S(C)=O)cc2)[nH]c(-c2ccncc2)c1C (stereo not drawn)
The melting point of the first is higher: over 340 °C for the first, 249 to 250 °C for the second.

First: C=CC(=O)OCCCCCCOc1ccc(C(=O)O)cc1
Second: CCC(CC)(CC(=O)Nc1cccc(OCc2ccc3cc(C)ccc3n2)c1)C(=O)O
The melting point of the first is lower: 139 °C for the first, 175 °C for the second.

First: O=C(CCl)Nc1ccc2c(c1NC(=O)c1ccccc1)C(=O)c1ccccc1C2=O
Second: ON=C(Cc1ccccc1)c1ccccc1
The melting point of the first is higher: 203 to 204 °C for the first, 94 to 96 °C for the second.

`CON1CCC2(CC1)NC(=O)C(Cl)(c1cc(C)ccc1C)C2=O` (stereo not drawn) and `CC(=O)NC[C@H]1CN(c2ccc(N3CCC4(CC3)COCO4)c(F)c2)C(=O)O1` fall in the same range of melting point: 142 to 144 °C for the first, 142 to 144 °C for the second.

First: CNC(=O)[C@@H]1C[C@H](SCc2ccc(OC)cc2)CN1C
Second: COc1ccc(S(=O)(=O)N2Cc3ccsc3C[C@@H]2C(=O)O)cc1
The melting point of the first is lower: 82 to 84 °C for the first, 110 °C for the second.

Compared with `OC1(F)OC(F)(F)C1(F)F` (stereo not drawn), `O=C(O)COC1(Cl)C=C2ONC(c3ccccc3F)=C2C(Cl)=C1Cl` (stereo not drawn) is higher in melting point: 90 to 91 °C for the first, 222 to 224 °C for the second.

Compared with `COc1cc(-c2nc(-n3c(C)ccc3C)sc2SCC2CCCCC2)c(OC)cc1C`, `COc1ccc(C2=NN(C3CCCCCC3)C(=O)[C@H]3CC=CC[C@@H]23)cc1OCC1CC1` (relative stereo) is lower in melting point: 117 to 118 °C for the first, 102 to 103 °C for the second.

First: CNc1cc(N2CCCNCC2)ccc1S(=O)(=O)c1cccc(F)c1
Second: O=C(c1cccc2c1NCC2)N1CCN(c2cccc(C(F)(F)F)c2)CC1
The melting point of the first is higher: 153 to 154 °C for the first, 115 to 118 °C for the second.

First: Cc1c(O)nc2sc(SCc3ccccc3)nn2c1=O
Second: CCn1c(=O)n(OCc2ccccc2)c(=O)c2cc(F)c(Cl)nc21
The melting point of the first is higher: 247 to 250 °C for the first, 156 to 157 °C for the second.

Compared with `O=C(O)c1cn(-c2ccc(F)cc2F)c2cc(N3CCC4(C3)OCCCO4)c(F)cc2c1=O`, `COc1cc2c(c(N3CCN(C)CC3)c1)OC(C(=O)Nc1ccc(N3CCN(C)CC3)cc1)CC2` (stereo not drawn) is higher in melting point: 168 to 170 °C for the first, 180 to 190 °C for the second.

First: Cc1oncc1C(=O)N1CCOCC1
Second: CCN1CCCC1CNC(=O)c1cc(S(=O)(=O)N(C)C)cc2c1OCCO2 (stereo not drawn)
The melting point of the first is lower: 42 to 44 °C for the first, 146 to 148 °C for the second.

First: CC1(C)CCC(C)(C)c2cc(CCCC(=O)O)ccc21
Second: CC1(C)COCC(=O)N1NCc1ccccc1
The melting point of the first is higher: 99 °C for the first, 76 to 77 °C for the second.

First: O=[N+]([O-])c1ccc(NC2CC2)cc1
Second: CC(C)(C)OC(=O)n1cnc2c([N+](=O)[O-])cccc21
The melting point of the first is lower: 126 to 128 °C for the first, 249 °C for the second.

Compared with `COCCC1=C(C)C(=Cc2ccc(S(N)(=O)=O)cc2)c2ccc(OC)cc21`, `COc1cccc(C2c3ccccc3C(c3ccc4c(c3)OCO4)C2C(=O)O)c1` (stereo not drawn) is lower in melting point: 140 °C for the first, 131 to 133 °C for the second.

Compared with `CCOCN1C(C)=C(C(=O)O)C(c2cccc(Cl)c2Cl)C(C(=O)OC)=C1C` (single isomer, unassigned; (+)), `CCOc1ccc(Cc2cn(C3OC(COC(C)=O)C(OC(C)=O)C(OC(C)=O)C3OC(C)=O)c3cccc(Cl)c23)cc1` (stereo not drawn) is higher in melting point: 129 to 131 °C for the first, 166 to 169 °C for the second.

Compared with `CCC(Cc1ccc(C(C)C(=O)O)cc1)C(C)O` (stereo not drawn), `CC(C)c1cccc2[nH]c(C(=O)O)cc(=O)c12` is higher in melting point: 100 to 103 °C for the first, over 250 °C for the second.

First: Nc1ncc(-c2ccc(=O)[nH]n2)c(-c2ccc(F)c(F)c2)n1
Second: CS(=O)(=O)c1ncc2cc(-c3ccccc3Cl)c(O)nc2n1
The melting point of the first is higher: 307 °C for the first, 215 to 221 °C for the second.

Compared with `CN(C)C(=O)COc1ccc2c(c1)C[C@@H](NC(=O)OCc1ccccc1)CC2`, `CCOC(=O)CON(C)C(=S)Nc1ccc2c(c1)CCC2` is lower in melting point: 117 to 118 °C for the first, 69 to 71 °C for the second.

Compared with `Cc1oc(-c2ccccc2)nc1Cc1cccc(CC2COC(C)(C)OC2)c1`, `CC(C)(C)OC(=O)NC1C=Cc2ccccc2CC1` (stereo not drawn) is higher in melting point: 85 to 87 °C for the first, 146 to 148 °C for the second.
